# “And” between values parts separate entries of the source, which are not always exact repeats. Equal values may be shown once.
# Assays:
# [1] = molecular target: T1, 5-lipoxygenase (Rattus norvegicus, UniProt P12527); assay: PMN5LO assay: inhibition of LTB4 production in A23187-stimulated rat peritoneal PMN (RIA); assay type: cell-based; details: for IC50: estimated concentration required for 50% inhibition
# T1 construct: endogenous in cells; host or cells: casein-elicited peritoneal polymorphonuclear leukocytes of male Sprague-Dawley rats
# T1 sequence (P12527 1-673): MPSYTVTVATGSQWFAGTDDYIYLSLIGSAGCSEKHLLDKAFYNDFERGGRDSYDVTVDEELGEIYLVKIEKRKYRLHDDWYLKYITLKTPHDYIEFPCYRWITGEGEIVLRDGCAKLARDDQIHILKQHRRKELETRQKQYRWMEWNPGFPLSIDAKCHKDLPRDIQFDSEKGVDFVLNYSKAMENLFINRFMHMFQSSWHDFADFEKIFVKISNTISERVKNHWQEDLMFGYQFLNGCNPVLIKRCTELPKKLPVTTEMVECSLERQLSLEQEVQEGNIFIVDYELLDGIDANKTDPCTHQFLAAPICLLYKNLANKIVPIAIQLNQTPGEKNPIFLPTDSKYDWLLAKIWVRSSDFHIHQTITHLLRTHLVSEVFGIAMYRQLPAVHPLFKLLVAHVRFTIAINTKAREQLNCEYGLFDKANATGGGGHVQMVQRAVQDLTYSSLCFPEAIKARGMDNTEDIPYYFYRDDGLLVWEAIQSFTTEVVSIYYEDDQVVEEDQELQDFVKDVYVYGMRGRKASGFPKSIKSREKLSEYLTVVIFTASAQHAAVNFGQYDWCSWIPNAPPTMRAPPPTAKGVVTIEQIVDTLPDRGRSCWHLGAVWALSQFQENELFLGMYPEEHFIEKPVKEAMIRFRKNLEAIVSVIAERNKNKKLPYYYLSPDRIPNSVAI
# Protocol: (§1) Two screening methods were employed for the purposes of evaluating the biological activities of the compounds of the present invention. The PMN5LO assay is a direct measure of the capacity to inhibit 5-lipoxygenase. The second protocol, RSVM-CO, is a method of determining inhibition of cyclooxygenase enzyme activity and as such it serves as a negative control.
# Elicition of Rat Peritoneal polymorphonuclear leukoytes (PMN)
# Male Sprague-Dawley rats (about 350 grams) were injected intraperitoneally the day before use with 8 ml of 12% sodium caseinate. The next day the animals were killed by CO2 asphyxiation and the peritoneal cavity lavaged twice with 20 ml of Hanks balanced salts containing 15 mM HEPES (pH 7.4), 1.4 mM Ca^++ and 0.7 mM Mg^++ (Hepes-Hanks). The suspensions were filtered through plastic mesh and centrifuged at […] for 5 minutes. The cells were resuspended in 50 ml Hepes-Hanks and recentrifuged. The PMN pellets were combined and suspended at 1.25×10^7 cells/ml.
# The cell suspension was then diluted 1:10, preincubated 5 minutes at 37° C. and distributed in 200 μl aliquots in the wells of 96 well microtiter plates. The wells had previously received samples of the compounds of the present invention, controls, etc., in 25 μl of 0.001% fatty acidfree BSA in Hepes-Hanks. The plates were incubated 2 minutes at 37° C. and then the cells were stimulated to produce LTB4 by the addition of 25 μl of 100 μM calcium ionophore, designated A23187. After 4 minutes at 37° C. the plates were frozen in dry ice.
# Radioimmunoassay (RIA) of LTB4
# The frozen plates were thawed to 4° C. and 25 μl aliquots removed to V well plates. Antibody to LTB4 (50 μl) was added and, after 15 minutes at room temperature, 50 μl of ^3 H-LTB4 was added and the plates were stored overnight at 4° C. to allow equilibration. The next day the "free" 3H-LTB4 was removed by adsorption to dextran coated charcoal [90 μl per well of a 4% charcoal suspension with 0.25% Dextran T-70 in 10 mM potassium phosphate (pH 7.3) containing lmM EDTA and 0.25 mM thimerasol] during a 10 minute ice temperature incubation. The charcoal was removed by a 10 minute centrifugation at 200 sg. Aliquots of the supernatant were counted in a Packard 460, analyzed in a Masscomp computer and the data drawn up as % inhibition of LTB4 production.
# [2] = molecular target: T2, cyclooxygenase (Ovis aries, UniProt P05979); assay: RSVM-CO: Ram Seminal Vesicle Microsomal Cyclooxygenase assay; assay type: biochemical; details: for inhibition at 0.01 µg/mL: 0.01 μg/ml; for inhibition at 0.1 µg/mL: 0.1 μg/ml; for inhibition at 1 µg/mL: 1 μg/ml
# T2 construct: Ram seminal vesicular glands were trimmed of fat; from tissue; host or cells: ram seminal vesicular glands, microsomal pellet (105K xg)
# T2 sequence (P05979 25-600): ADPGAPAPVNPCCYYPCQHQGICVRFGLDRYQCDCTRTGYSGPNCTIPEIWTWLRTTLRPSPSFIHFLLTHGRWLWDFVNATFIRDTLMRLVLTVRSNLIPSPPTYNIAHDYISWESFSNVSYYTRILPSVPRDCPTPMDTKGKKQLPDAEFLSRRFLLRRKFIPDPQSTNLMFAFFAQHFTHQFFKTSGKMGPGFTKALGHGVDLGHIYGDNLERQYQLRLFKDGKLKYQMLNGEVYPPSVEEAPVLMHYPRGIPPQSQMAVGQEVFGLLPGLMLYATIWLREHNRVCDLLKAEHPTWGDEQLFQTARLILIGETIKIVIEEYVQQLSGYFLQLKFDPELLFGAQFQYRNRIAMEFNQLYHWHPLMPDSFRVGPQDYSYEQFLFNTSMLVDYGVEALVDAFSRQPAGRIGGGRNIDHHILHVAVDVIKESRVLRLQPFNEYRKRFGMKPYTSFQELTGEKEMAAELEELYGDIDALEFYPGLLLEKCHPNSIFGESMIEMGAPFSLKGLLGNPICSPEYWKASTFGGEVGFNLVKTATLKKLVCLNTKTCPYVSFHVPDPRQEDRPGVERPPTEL
# Text: as §1
# B. Ram Seminal Vesicle Microsomal Cyclooxygenase (RSVM-CO) Assay Protocol
# Ram seminal vesicular glands were trimmed of fat, 50 grams diced into 250 mls ice cold 0.1 M potassium phosphate (pH 7.6) buffer and homogenized using a Brinkman Polytron. The suspension was centrifuged 10 minutes at […] (4° C.) and the supernatant filtered through two cheesecloth layers. The filtrate was centrifuged 160 minutes at 105K xg, the supernatant thereof discarded, and the pellet surface rinsed with a small volume of buffer. The pellets were combined in a small volume, briefly homogenized with the Polytron and frozen in 0.5 ml aliquots at -80° C. The protein concentration was about 50 mg/ml.
# The thawed enzyme was diluted 1:63 with 0.125 M Na EDTA (pH 8.0) containing 50 μg/ml BSA. A substrate-cofactor premix was prepared with 66 μM ^14 C-arachidonic acid (about 20K cpm/12.5 μl) in 500 μl 0.125 M Na EDTA (pH 8.0) plus 10 μl 50 mM hydroquinone and 10 μl 200 mM glutathione. To each sample well in the 96 well plate, agents dissolved in 0.5 μ DMSO were added, followed by 12.5 μl of the diluted enzyme. After a 4 minute preincubation at room temperature, 12.5 μl of the substrate-cofactor mix was added to start the reaction. The reaction was terminated after 20 minutes at room temperature by adding 25 μl of methanol containing 200 μg PGE2 and 400 μg AA per ml.
# The entire reaction mixture was spotted onto a preadsorbent silica gel GF thin layer plate and, after air drying 45 minutes, developed 12 cm in ethyl acetate:glacial acetic acid (99:1).
# The developed lanes were scanned for the distribution of radiolabel using a Bioscan Imaging Detector and the integrated peaks compared to standards and controls yielding % inhibition.
PMN5LO % inhibition ([1]; 0.11 μg/ml),PMN5LO % inhibition ([1]; 0.33 μg/ml),inhibition at 0.33 µg/mL ([1]; 0.33 μg/ml),IC50 [1],inhibition at 0.01 µg/mL [2],inhibition at 0.1 µg/mL [2],inhibition at 1 µg/mL [2],PMN5LO % inhibition ([1]; 0.012 μg/ml),PMN5LO % inhibition ([1]; 1 μg/ml),inhibition at 0.4 µg/mL ([2]; 0.4 μg/ml),inhibition at 2 µg/mL ([2]; 2 μg/ml),inhibition at 10 µg/mL ([2]; 10 μg/ml),inhibition at 5 µg/mL ([2]; 5 μg/ml),SMILES,inhibition at 0.11 µg/mL ([1]; 0.11 μg/ml),inhibition at 0.012 µg/mL ([1]; 0.012 μg/ml),inhibition at 1 µg/mL ([1]; 1 μg/ml),inhibition at 0.037 µg/mL ([1]; 0.037 μg/ml)
40%,84%,74%,580 nM and 350 nM,28%,0%,100%,–,–,–,–,–,–,"COCOc1cc(-c2ccccc2)sc1-c1ccccc1 [Compound 12, 2,5-Diphenyl-3-(methoxymethoxy)-thiophene]",31%,–,–,–
97% and 70%,85%,98%,110 nM,–,24%,6%,11%,88%,18%,46%,92%,–,"Oc1cc(-c2ccccc2)sc1-c1ccccc1 [Compound 4, 3-Hydroxy-2,5-diphenylthiophene]",–,17%,99%,–
–,–,–,> 3000 nM,0%,0%,12%,–,10% and 0%,–,–,–,76%,CC(=O)Oc1c(-c2ccccc2)sc(-c2ccccc2)c1-c1ccccc1 [Compound 7],–,–,–,–

SMILES,PMN5LO % inhibition ([1]; 0.11 μg/ml),PMN5LO % inhibition ([1]; 0.33 μg/ml),inhibition at 0.33 µg/mL ([1]; 0.33 μg/ml),IC50 [1],inhibition at 0.01 µg/mL [2],inhibition at 0.1 µg/mL [2],inhibition at 1 µg/mL [2],PMN5LO % inhibition ([1]; 0.012 μg/ml),PMN5LO % inhibition ([1]; 1 μg/ml),inhibition at 0.4 µg/mL ([2]; 0.4 μg/ml),inhibition at 2 µg/mL ([2]; 2 μg/ml),inhibition at 10 µg/mL ([2]; 10 μg/ml),inhibition at 5 µg/mL ([2]; 5 μg/ml),inhibition at 0.11 µg/mL ([1]; 0.11 μg/ml),inhibition at 0.012 µg/mL ([1]; 0.012 μg/ml),inhibition at 1 µg/mL ([1]; 1 μg/ml),inhibition at 0.037 µg/mL ([1]; 0.037 μg/ml)
"CC(=O)Oc1cscc1-c1ccccc1 [Compound 15, 3-Acetoxy-4-phenylthiophene]",–,–,0%,–,–,0%,0%,–,–,–,–,–,–,0%,9%,10%,0%
